Results as given in patent US12077503B2, “Substituted cyclic amides and their use as herbicides” (FMC CORPORATION, priority 2015, dated 2024).

How the values were obtained:
Assay type in all cases: in vivo
[1] = tested on: ragweed (common ragweed, Ambrosia elatior); experiment: Test A preemergence; settings: Ambrosia artemisiifolia, pre-emergence, 240 h, 0 to 100 scale where 0 is no effect and 100 is complete control, read-out: Ragweed plant response rating
Summary of the method: (§1)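 Visual injury scores from 0, no effect, to 100, complete control, were assigned versus untreated controls roughly 10 d after treatment in the greenhouse. Test chemicals, formulated with surfactant in a non-phytotoxic solvent, were applied to planted seeds as a preemergence soil spray or postemergence to one- to two-leaf plants 2 to 10 cm tall, in loam–sand soil.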

Kochia (Kochia scoparia) [2] = experiment: Test A preemergence; settings: Bassia scoparia, pre-emergence, 240 h, 0 to 100 scale where 0 is no effect and 100 is complete control, read-out: Kochia plant response rating
Summary of the method: as §1

[3] = tested on: ryegrass, Italian (Italian ryegrass, Lolium multiflorum); experiment: Test A preemergence; settings: Lolium multiflorum, pre-emergence, 240 h, 0 to 100 scale where 0 is no effect and 100 is complete control, read-out: Ryegrass, Italian plant response rating
Summary of the method: as §1

[4] = tested on: giant foxtail (Setaria faberii); experiment: Test A preemergence; settings: Setaria faberi, pre-emergence, 240 h, 0 to 100 scale where 0 is no effect and 100 is complete control, read-out: Foxtail, Giant plant response rating
Summary of the method: as §1

[5] = tested on: barnyardgrass (Echinochloa crus-galli); experiment: Test A preemergence; settings: Echinochloa crus-galli, pre-emergence, 240 h, 0 to 100 scale where 0 is no effect and 100 is complete control, read-out: Barnyardgrass plant response rating
Summary of the method: as §1

[6] = tested on: pigweed (Amaranthus retroflexus); experiment: Test A preemergence; settings: Amaranthus retroflexus, pre-emergence, 240 h, 0 to 100 scale where 0 is no effect and 100 is complete control, read-out: Pigweed plant response rating
[7] = tested on: ragweed (common ragweed, Ambrosia elatior); experiment: Test A postemergence; settings: Ambrosia artemisiifolia, post-emergence, 240 h
Summary of the method: as §1

Kochia (Kochia scoparia) [8] = experiment: Test A postemergence; settings: Bassia scoparia, post-emergence, 240 h
Summary of the method: as §1

[9] = tested on: blackgrass (Alopecurus myosuroides); experiment: Test A postemergence; settings: Alopecurus myosuroides, post-emergence, 240 h
Summary of the method: as §1

[10] = tested on: ryegrass, Italian (Italian ryegrass, Lolium multiflorum); experiment: Test A postemergence; settings: Lolium multiflorum, post-emergence, 240 h
Summary of the method: as §1

[11] = tested on: giant foxtail (Setaria faberii); experiment: Test A postemergence; settings: Setaria faberi, post-emergence, 240 h
Summary of the method: as §1

corn (Zea mays) = experiment: Test A postemergence; settings: Zea mays, post-emergence, 240 h
Summary of the method: as §1

[12] = tested on: barnyardgrass (Echinochloa crus-galli); experiment: Test A postemergence; settings: Echinochloa crus-galli, post-emergence, 240 h
Summary of the method: as §1

[13] = tested on: pigweed (Amaranthus retroflexus); experiment: Test A postemergence; settings: Amaranthus retroflexus, post-emergence, 240 h
Summary of the method: as §1

[14] = tested on: wheat (Triticum aestivum); experiment: Test A postemergence; settings: Triticum aestivum, post-emergence, 240 h
Summary of the method: as §1

[15] = tested on: ducksalad (Heteranthera limosa); experiment: Test B flooded paddy test; settings: Heteranthera limosa, 250 g ai/ha, Flood; 0 to 100 scale where 0 is no effect and 100 is complete control; read-out: Ducksalad plant response rating
Summary of the method: (§2)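 Percent control, visually estimated after 13–15 d in the greenhouse on a 0–100 basis, compares treated pots with untreated ones; compound was put into paddy water 3 cm above the soil when plants had two leaves.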

[16] = tested on: sedge, umbrella (small-flower umbrella sedge, Cyperus difformis); experiment: Test B flooded paddy test; settings: Cyperus difformis, 250 g ai/ha, Flood; 0 to 100 scale where 0 is no effect and 100 is complete control; read-out: Sedge, Umbrella plant response rating
Summary of the method: as §2

[17] = tested on: barnyardgrass (Echinochloa crus-galli); experiment: Test B flooded paddy test; settings: Echinochloa crus-galli, 250 g ai/ha, Flood; 0 to 100 scale where 0 is no effect and 100 is complete control; read-out: Barnyardgrass plant response rating
Summary of the method: as §2

rice (Oryra sativa) = experiment: Test B flooded paddy test; settings: Oryza sativa, 250 g ai/ha, Flood; 0 to 100 scale where 0 is no effect and 100 is complete control; read-out: Rice plant response rating
Summary of the method: as §2

[18] = 125 g ai/ha, preemergence, approx. 10 d

## CN1C[C@H](c2cc(C(F)F)cs2)[C@@H](C(=O)Nc2cccc(F)c2C#N)C1=O [Compound 1092]
[1]; 31 g ai/ha, Preemergence
  pest or weed control at 31 g/ha: 0%
[1]; [18]
  pest or weed control at 125 g/ha: 40%
Kochia (Kochia scoparia) [2]; 31 g ai/ha, Preemergence
  pest or weed control at 31 g/ha: 70%
Kochia (Kochia scoparia) [2]; [18]
  pest or weed control at 125 g/ha: 0%
[3]; 31 g ai/ha, Preemergence
  pest or weed control at 31 g/ha: 0%
[3]; [18]
  pest or weed control at 125 g/ha: 0%
[4]; 31 g ai/ha, Preemergence
  pest or weed control at 31 g/ha: 90%
[4]; [18]
  pest or weed control at 125 g/ha: 100%
[5]; 31 g ai/ha, Preemergence
  pest or weed control at 31 g/ha: 40%
[5]; [18]
  pest or weed control at 125 g/ha: 90%
[6]; 31 g ai/ha, Preemergence
  pest or weed control at 31 g/ha: 0%
[6]; [18]
  pest or weed control at 125 g/ha: 0%
[7]; 125 g ai/ha, postemergence, visual injury on 0 to 100 scale (0 no effect, 100 complete control), approx. 10 d, read-out: Ragweed plant response rating
  pest or weed control at 125 g/ha: 50%
[7]; Postemergence, 31 g ai/ha, visual injury after approx. 10 d, 0 to 100 scale, 0 no effect, 100 complete control, read-out: Plant response rating, Ragweed
  pest or weed control at 31 g/ha: 0%
Kochia (Kochia scoparia) [8]; 125 g ai/ha, postemergence, visual injury on 0 to 100 scale (0 no effect, 100 complete control), approx. 10 d, read-out: Kochia plant response rating
  pest or weed control at 125 g/ha: 20%
Kochia (Kochia scoparia) [8]; Postemergence, 31 g ai/ha, visual injury after approx. 10 d, 0 to 100 scale, 0 no effect, 100 complete control, read-out: Plant response rating, Kochia
  pest or weed control at 31 g/ha: 0%
[9]; 125 g ai/ha, postemergence, visual injury on 0 to 100 scale (0 no effect, 100 complete control), approx. 10 d, read-out: Blackgrass plant response rating
  pest or weed control at 125 g/ha: 20%
[9]; Postemergence, 31 g ai/ha, visual injury after approx. 10 d, 0 to 100 scale, 0 no effect, 100 complete control, read-out: Plant response rating, Blackgrass
  pest or weed control at 31 g/ha: 0%
[10]; 125 g ai/ha, postemergence, visual injury on 0 to 100 scale (0 no effect, 100 complete control), approx. 10 d, read-out: Ryegrass, Italian plant response rating
  pest or weed control at 125 g/ha: 0%
[10]; Postemergence, 31 g ai/ha, visual injury after approx. 10 d, 0 to 100 scale, 0 no effect, 100 complete control, read-out: Plant response rating, Ryegrass, Italian
  pest or weed control at 31 g/ha: 0%
[11]; 125 g ai/ha, postemergence, visual injury on 0 to 100 scale (0 no effect, 100 complete control), approx. 10 d, read-out: Foxtail, Giant plant response rating
  pest or weed control at 125 g/ha: 90%
[11]; Postemergence, 31 g ai/ha, visual injury after approx. 10 d, 0 to 100 scale, 0 no effect, 100 complete control, read-out: Plant response rating, Foxtail, Giant
  pest or weed control at 31 g/ha: 30%
Corn (Zea mays); 125 g ai/ha, postemergence, visual injury on 0 to 100 scale (0 no effect, 100 complete control), approx. 10 d, read-out: Corn plant response rating
  plant injury at 125 g/ha: 0%
Corn (Zea mays); Postemergence, 31 g ai/ha, visual injury after approx. 10 d, 0 to 100 scale, 0 no effect, 100 complete control
  Corn plant response rating (crop injury, 0 = no effect, 100 = complete kill) at 31 g/ha: 0%
[12]; 125 g ai/ha, postemergence, visual injury on 0 to 100 scale (0 no effect, 100 complete control), approx. 10 d, read-out: Barnyardgrass plant response rating
  pest or weed control at 125 g/ha: 90%
[12]; Postemergence, 31 g ai/ha, visual injury after approx. 10 d, 0 to 100 scale, 0 no effect, 100 complete control, read-out: Plant response rating, Barnyardgrass
  pest or weed control at 31 g/ha: 50%
[13]; 125 g ai/ha, postemergence, visual injury on 0 to 100 scale (0 no effect, 100 complete control), approx. 10 d, read-out: Pigweed plant response rating
  pest or weed control at 125 g/ha: 20%
[13]; Postemergence, 31 g ai/ha, visual injury after approx. 10 d, 0 to 100 scale, 0 no effect, 100 complete control, read-out: Plant response rating, Pigweed
  pest or weed control at 31 g/ha: 0%
[14]; 125 g ai/ha, postemergence, visual injury on 0 to 100 scale (0 no effect, 100 complete control), approx. 10 d, read-out: Wheat plant response rating
  plant injury at 125 g/ha: 0%
[14]; Postemergence, 31 g ai/ha, visual injury after approx. 10 d, 0 to 100 scale, 0 no effect, 100 complete control, read-out: Plant response rating, Wheat
  plant injury at 31 g/ha: 0%
[15]
  pest or weed control at 250 g/ha: 85%
[16]
  pest or weed control at 250 g/ha: 0%
[17]
  pest or weed control at 250 g/ha: 60%
Rice (Oryra sativa)
  pest or weed control at 250 g/ha: 0%
